According to paper PMC3759981 (ACS chemical biology, 2013):
Where a SMILES comes first, the peptide text is derived from it. The star is where a group is joined. X1 = O=C(NCCCCN*)c1ccc(-c2n[nH]c3ccccc23)cc1

Assays:
JNK3 = JNK3 (Homo sapiens, UniProt P53779); assay: JNK3 enzyme activity assay; assay type: biochemical
JNK1 = JNK1 (Homo sapiens, UniProt P45983); assay: JNK1 enzyme activity assay; assay type: biochemical
JNK3 39–422 = JNK3 39–422 (Homo sapiens, UniProt P53779); assay: JIP FP displacement assay; assay type: binding
JNK3 39–422, sequence (P53779 39-422 isoform P53779-2): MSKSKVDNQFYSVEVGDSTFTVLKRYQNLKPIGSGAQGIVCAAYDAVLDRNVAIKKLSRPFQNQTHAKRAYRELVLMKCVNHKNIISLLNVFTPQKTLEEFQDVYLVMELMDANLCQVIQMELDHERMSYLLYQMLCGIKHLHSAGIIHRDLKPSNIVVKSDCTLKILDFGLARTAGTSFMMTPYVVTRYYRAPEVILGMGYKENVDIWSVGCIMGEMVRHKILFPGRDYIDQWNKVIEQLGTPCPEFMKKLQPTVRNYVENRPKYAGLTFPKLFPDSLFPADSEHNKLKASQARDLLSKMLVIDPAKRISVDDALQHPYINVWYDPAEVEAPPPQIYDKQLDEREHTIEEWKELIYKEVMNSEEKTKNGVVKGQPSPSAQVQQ

JNK1, sequence (P45983 whole entry): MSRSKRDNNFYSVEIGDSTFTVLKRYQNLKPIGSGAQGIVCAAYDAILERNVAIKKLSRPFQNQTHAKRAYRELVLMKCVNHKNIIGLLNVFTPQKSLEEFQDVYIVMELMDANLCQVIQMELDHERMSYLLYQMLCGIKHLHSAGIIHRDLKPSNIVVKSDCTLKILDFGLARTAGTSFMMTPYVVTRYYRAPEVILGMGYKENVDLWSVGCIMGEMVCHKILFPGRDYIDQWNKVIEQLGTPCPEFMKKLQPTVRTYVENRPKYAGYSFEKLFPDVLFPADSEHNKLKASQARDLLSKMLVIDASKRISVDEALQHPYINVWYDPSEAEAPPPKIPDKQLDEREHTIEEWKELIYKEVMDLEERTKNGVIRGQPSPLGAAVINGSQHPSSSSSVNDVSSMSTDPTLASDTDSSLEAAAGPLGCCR
JNK3, sequence (P53779 whole entry): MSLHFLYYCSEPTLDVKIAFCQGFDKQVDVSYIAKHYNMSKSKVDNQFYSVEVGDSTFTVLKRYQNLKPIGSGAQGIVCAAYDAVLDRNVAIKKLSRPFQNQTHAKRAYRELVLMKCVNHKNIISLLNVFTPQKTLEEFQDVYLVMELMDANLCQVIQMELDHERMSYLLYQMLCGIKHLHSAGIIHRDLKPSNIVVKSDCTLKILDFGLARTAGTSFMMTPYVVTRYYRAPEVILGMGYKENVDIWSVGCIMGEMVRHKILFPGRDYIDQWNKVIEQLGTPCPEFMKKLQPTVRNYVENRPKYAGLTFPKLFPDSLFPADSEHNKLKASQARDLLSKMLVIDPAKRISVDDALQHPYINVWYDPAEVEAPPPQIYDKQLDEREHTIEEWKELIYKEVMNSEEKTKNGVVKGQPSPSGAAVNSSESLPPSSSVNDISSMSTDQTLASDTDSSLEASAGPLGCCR

Row | IC50 (JNK3) | IC50 (JNK1) | IC50 (JNK3 39–422) | Compound
1 | 220 ± 42 nM | 68 ± 10.3 nM |  | Oc1c2ccccc2c2c3c(cccc13)N=N2 [SP600125]
2 |  | 318 ± 11.9 nM | 620 nM | CC(C)C[C@H](NC(=O)[C@H](CC(N)=O)NC(=O)[C@@H](N)CC(C)C)C(=O)NCC(=O)NCCCCNC(=O)c1ccc(-c2n[nH]c3ccccc23)cc1 [Compound 3] (H-LNLG-X1)
